Results taken from ChEMBL document CHEMBL1201862, “PubChem BioAssay data set” (2004).
Where “and” joins values, the source holds several entries; their conditions need not be identical. Equal values may be shown once. One block for each compound: values may come before it. Calls of active or inactive are those of the source.

Columns and labels:
[1] = inhibition of Env-driven cell fusion – HIV entry, plate reader, dry powder, dose response (AID 687023); type: functional, cell-based
[2] = viability loss in CEM21 cells – cell-based, plate reader, dry powder, cytotoxicity control, dose response (AID 687026); type: functional
[3] = NIH3T3 cell viability loss – ATP luminescence, mouse fibroblasts, counter-screen, dose response (AID 2010); type: functional, cell-based;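 note: cells exposed to compound for about 90 hours before reading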
[4] = cervical cancer cell viability loss – HeLa, 24 h, plate reader, powder samples, set 3, cytotoxicity control, dose response (AID 651864); type: functional, cell-based
[5] = Trypanosoma cruzi growth suppression in host cells – NIH3T3 host cells, beta-gal luminescence, confirmation (AID 2044); type: functional, cell-based;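 note: intracellular parasites grown in NIH/3T3 mouse fibroblasts as host cells; luminescent beta-galactosidase reporter signal from transgenic T. cruzi replicating inside host cells; inhibitors lower the luminescence signal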
[6] = biological target: Metabotropic glutamate receptor 7 (Homo sapiens, UniProt Q14831); experiment: potentiation of glutamate EC20 at mGlu7 – cell-based, calcium mobilization, Galpha15, dose response (AID 743384); type: functional
Metabotropic glutamate receptor 7, sequence (Q14831 whole entry): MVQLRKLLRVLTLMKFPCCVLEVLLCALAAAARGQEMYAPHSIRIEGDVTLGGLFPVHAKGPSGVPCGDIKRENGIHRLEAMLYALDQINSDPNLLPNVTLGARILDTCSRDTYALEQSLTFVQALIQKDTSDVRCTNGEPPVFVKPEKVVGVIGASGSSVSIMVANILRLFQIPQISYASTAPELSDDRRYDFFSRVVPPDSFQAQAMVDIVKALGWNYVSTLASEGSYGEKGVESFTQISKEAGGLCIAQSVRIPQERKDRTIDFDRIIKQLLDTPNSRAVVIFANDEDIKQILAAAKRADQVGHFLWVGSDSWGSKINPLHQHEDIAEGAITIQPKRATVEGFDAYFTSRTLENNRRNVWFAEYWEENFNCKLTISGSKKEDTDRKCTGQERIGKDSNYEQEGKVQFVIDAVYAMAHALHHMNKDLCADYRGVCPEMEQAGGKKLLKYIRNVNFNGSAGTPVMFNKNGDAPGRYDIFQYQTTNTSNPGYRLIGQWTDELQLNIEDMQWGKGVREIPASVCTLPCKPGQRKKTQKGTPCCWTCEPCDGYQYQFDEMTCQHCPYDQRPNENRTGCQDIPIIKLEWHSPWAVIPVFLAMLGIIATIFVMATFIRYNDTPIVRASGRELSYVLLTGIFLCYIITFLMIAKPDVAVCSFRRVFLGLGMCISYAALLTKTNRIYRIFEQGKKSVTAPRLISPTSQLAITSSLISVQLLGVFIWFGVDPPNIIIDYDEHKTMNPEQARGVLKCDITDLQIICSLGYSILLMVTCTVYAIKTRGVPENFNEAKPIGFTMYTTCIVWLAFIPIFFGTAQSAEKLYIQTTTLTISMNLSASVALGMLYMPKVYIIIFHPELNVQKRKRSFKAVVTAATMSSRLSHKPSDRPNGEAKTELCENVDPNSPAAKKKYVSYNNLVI

[7] = blockers of FN fibrillogenesis by fibroblasts – AH1F cells, Alexa488-FN fluorescence, cherry-picks, dose response (AID 1035475); type: functional, cell-based
[8] = viability loss in HEK293 kidney cells – cell-based, cherry-picks, set 5, cytotoxicity control, dose response (AID 1053117); type: functional
[9] = biological target: T1, Oxysterols receptor LXR-beta (Homo sapiens, UniProt P55055); type: functional, cell-based;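 note: agonist activity at LXR measured by a cell-based luminescence readout across a dose range, run as a counterscreen for daf-12 agonists; HEK293 cells with Gal4-LXR fusion and GAL4-driven luciferase reporter; potency for activation of Gal4-LXR reporter so compounds are agonists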
T1 sequence (P55055 whole entry): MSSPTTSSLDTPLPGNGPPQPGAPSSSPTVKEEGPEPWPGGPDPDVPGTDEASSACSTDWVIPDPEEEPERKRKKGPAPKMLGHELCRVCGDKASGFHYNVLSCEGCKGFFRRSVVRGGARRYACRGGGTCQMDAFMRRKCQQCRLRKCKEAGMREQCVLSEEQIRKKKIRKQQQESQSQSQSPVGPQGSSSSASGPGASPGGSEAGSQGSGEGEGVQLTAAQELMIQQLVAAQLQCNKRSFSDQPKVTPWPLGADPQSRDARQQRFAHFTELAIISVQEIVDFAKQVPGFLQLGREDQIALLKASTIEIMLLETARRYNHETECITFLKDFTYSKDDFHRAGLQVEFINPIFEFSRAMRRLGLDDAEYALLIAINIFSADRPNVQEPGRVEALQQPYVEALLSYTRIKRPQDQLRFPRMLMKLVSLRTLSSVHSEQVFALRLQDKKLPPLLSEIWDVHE

[10] = viability loss in HepG2 hepatoma cells – cell-based, ATP luminescence, cherry-pick, activator set 2, cytotoxicity control, dose response (AID 1053143); type: functional

SMILES: CC(C)N1CCc2c(sc(NC(=O)Cc3ccccc3)c2C#N)C1
AC50 (cells): 10.8 µM (active)

SMILES: CCOc1ccc(S(=O)(=O)NCc2ccccc2)cc1
AC50 [1]: 66.7 µM (active) and > 70 µM (inactive)
AC50 [2]: > 70 µM (inactive)

SMILES: CCC(C)NC(=O)Cc1ccc(-c2ccccc2)cc1 (stereo unspecified)
EC50 [3]: > 60 µM (not active)
AC50 [4]: 141 µM (active)
EC50 [5]: 0.794 µM (active)

EC50 [6]: 10 µM (active)
SMILES: COC(=O)c1ccc(-n2c(C)cc(C(=O)CSCc3cccc(C)c3)c2C)cc1

SMILES: C[C@H]1CN([C@@H](C)CO)C(=O)c2cc(NC(=O)C3CCCCC3)ccc2O[C@@H]1CN(C)Cc1ccc(-c2ccccc2)cc1
AC50 [7]: > 70 µM (inactive)
AC50 [8]: 51.3 µM (active)

SMILES: Cc1nc2[nH]c(-c3cccs3)nc2cc1Br
EC50 [9]: > 67.5 µM (inactive)
AC50 [10]: 26 µM (active)
